A short description of data set [1]: logP determination by HPLC (reversed-phase C 18), EEC Directive 79/831 Annex V.A8. The format is physicochemical. The settings on record: acidic range, 0.1% aqueous phosphoric acid/acetonitrile; for chromatographic logP: reversed-phase C18 HPLC column, pH 2, reversed-phase C 18, 43° C.; for logP (pH 2): reversed-phase C 18, 43° C. The method, then: The logP values given in the Tables and Preparation Examples above are determined in accordance with EEC Directive 79/831 Annex V.A8 by HPLC (High Performance Liquid Chromatography) using a reversed-phase column (C 18). Temperature: 43° C.
The determination is carried out in the acidic range at pH 2.3 using the-mobile phases 0.1% aqueous phosphoric acid and acetonitrile; linear gradient from 10% acetonitrile to 90% acetonitrile.

Data set [2] relates to caterpillars of the army worm (Spodoptera frugiperda). Briefly: Spodoptera frugiperda test (dipped cabbage leaves). The class given is in vivo. The settings on record: for Efficacy in % after 7d: 500 ppm active compound, kill after 7 d, cabbage leaves (Brassica oleracea); for kill: active compound concentration of 500 ppm, after 7 days. As for the experimental part:
Spodoptera frugiperda Test
(§1) • Solvent: 7 parts by weight of dimethylformamide • Emulsifier: 2 parts by weight of alkylaryl polyglycol ether
(§2) To produce a suitable preparation of active compound, 1 part by weight of active compound is mixed with the stated amount of solvent and emulsifier, and the concentrate is diluted with emulsifier-containing water to the desired concentration.
Cabbage leaves (Brassica oleracea) are treated by being dipped into the preparation of active compound of the desired concentration and are populated with caterpillars of the army worm (Spodoptera frugiperda) while the leaves are still moist.
After the desired period of time, the kill in % is determined. 100% means that all caterpillars have been killed; 0% means that none of the caterpillars have been killed.

Data set [3] concerns larvae of the mustard beetle (Phaedon cochleariae). Briefly: Phaedon larvae test (dipped cabbage leaves). The class given is in vivo. The settings on record: 500 ppm active compound, kill after 7 d, cabbage leaves (Brassica oleracea). The method, then: as §1, §2
After the desired period of time, the kill in % is determined. 100% means that all beetle larvae have been killed; 0% means that none of the beetle larvae have been killed.

As usually defined, the chromatographic logP is a lipophilicity value derived from retention on a column. Lower therefore signals a more hydrophilic compound.

In data set [1], `Cn1nnc(-c2cnn(C3CN(C(=O)Nc4ccc(OC(F)(F)F)cc4)N=C3c3ccc(Cl)cc3)c2)n1` (centres unmarked) [Example 4] gave a chromatographic logP of 3.75. In data set [2], the “Efficacy in % after 7d” value is 100% and the kill was determined as 100%.

Molecule `CC(C)(C)n1nnc(-c2cnn(C3CNN=C3c3ccc(Cl)cc3)c2)n1` (centres unmarked) [3-(4-chlorophenyl)-4-[4-(2-tert-butyltetrazol-5-yl)pyrazol-1-yl]4,5-dihydro-1H-pyrazole] registered a chromatographic logP in data set [1] of 2.91.

`CC(C)(C)n1nnc(-c2cnn(CC(=O)c3ccc(Cl)cc3)c2)n1` [2-[4-(2-tert-butyltetrazol-5-yl)pyrazol-1-yl]-4′-chloroacetophenone] had a chromatographic logP in data set [1] of 2.96. This chromatographic logP and that of the molecule before are within 0.2 log units of each other.

In turn, `Cn1nnc(-c2cnn(C3CN(C(=O)N(CC#N)c4ccc(OC(F)(F)F)cc4)N=C3c3ccc(Cl)cc3)c2)n1` (centres unmarked) [Example 6] showed a chromatographic logP in data set [1] of 3.51. Also, the “Efficacy in % after 7d” value in data set [3] and in data set [2] was 100% throughout.

For `CC(C)(C)n1nnc(-c2cnn(C3CN(C(=O)Nc4ccc(OC(F)(F)F)cc4)N=C3c3ccc(Cl)cc3)c2)n1` (centres unmarked) [Example 1, N-(4-trifluoromethoxy)-3-(4-chlorophenyl)-4-[4-(2-tert-butyltetrazol-5-yl)pyrazol-1-yl]-4,5-dihydro-1-pyrazolecarboxanilide], in data set [1], the “logP (pH 2)” value was found to be 4.63.

Regarding `O=C(Cn1cc(-c2nn[nH]n2)cn1)c1ccc(Cl)cc1` [2-[4-(tetrazol-5-yl)pyrazol-1-yl]-4′-chloroacetophenone], the chromatographic logP in data set [1] was 1.6.

Turning to `CC(C)(C)n1nnc(-c2cnn(C3CN(C(=O)N(CC#N)c4ccc(OC(F)(F)F)cc4)N=C3c3ccc(Cl)cc3)c2)n1` (centres unmarked) [Example 2, N-cyanomethyl-N(4-trifluoromethoxy)-3-(4-chlorophenyl)-4-[4-(2-tert-butyltetrazol-5-yl)pyrazol-1-yl]-4,5-dihydro-1-pyrazolecarboxanilide], the “logP (pH 2)” value in data set [1] turned out to be 4.40. The “Efficacy in % after 7d” value in data set [3] and in data set [2] was 100% in each case. This molecule registered a kill in data set [2] of 100%.
